# ChEMBL document CHEMBL1201862, “PubChem BioAssay data set” (2004)
#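 96-well plates; 48 h exposure; 5 concentrations. Endpoints by linear interpolation between flanking doses. Not reached: highest tested concentration assigned. GI50 is the concentration that inhibits growth by half.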 The source made the active and inactive calls. No stated cut-off is given here; in the data, active = GI50 up to about 1.1 µM and inactive = higher.
# Assays:
# Assay in all cases: inhibition of tumour cell growth, NCI panel, 48 h
# [1] = system: 786-0
# [2] = system: A498
# [3] = system: A549
# [4] = system: ACHN
# [5] = system: CAKI-1
# [6] = system: CCRF-CEM
# [7] = system: COLO 205
# [8] = system: DU-145
# [9] = system: EKVX
# [10] = system: HCC 2998
# [11] = system: HCT-116
# [12] = system: HCT-15
# [13] = system: HL-60
# [14] = system: HOP-62
# [15] = system: HOP-92
# [16] = system: HT-29
# [17] = system: Hs-578T
# [18] = system: IGROV-1
# [19] = system: K562
# [20] = system: KM12
# [21] = system: LOX IMVI
# [22] = system: M14
# [23] = system: MCF7
# [24] = system: MDA-MB-231
# [25] = system: MDA-MB-435
# [26] = system: MDA-N
# [27] = system: MOLT-4
# [28] = system: Malme-3M
# [29] = system: NCI-H226
# [30] = system: NCI-H23
# [31] = system: NCI-H460
# [32] = system: NCI/ADR-RES
# [33] = system: OVCAR-3
# [34] = system: OVCAR-4
# [35] = system: OVCAR-5
# [36] = system: OVCAR-8
# [37] = system: PC-3
# [38] = system: RPMI-8226
# [39] = system: RXF 393
# [40] = system: SF-268
# [41] = system: SF-295
# [42] = system: SF-539
# [43] = system: SK-MEL-28
# [44] = system: SK-MEL-5
# [45] = system: SK-OV-3
# [46] = system: SN12C
# [47] = system: SNB-19
# [48] = system: SNB-75
# [49] = system: SR
# [50] = system: SW-620
# [51] = system: T47D
# [52] = system: TK-10
# [53] = system: U-251
# [54] = system: UACC-257
# [55] = system: UACC-62
# [56] = system: UO-31
# [57] = system: NCI-H522
# [58] = system: SK-MEL-2
smiles,measurement,setting,value
CC(C)/C(Cl)=N\OC(NC(=O)P(=O)(c1ccccc1)c1ccccc1)(C(F)(F)F)C(F)(F)F,GI50,[1],10.3 µM (inactive)
same,GI50,[2],14.9 µM (inactive)
same,GI50,[3],5.15 µM (inactive)
same,GI50,[4],3.62 µM (inactive)
same,GI50,[5],23.7 µM (inactive)
same,GI50,[6],5.01 µM (inactive)
same,GI50,[7],11.7 µM (inactive)
same,GI50,[8],11.1 µM (inactive)
same,GI50,[9],20 µM (inactive)
same,GI50,[10],14.8 µM (inactive)
same,GI50,[11],9.16 µM (inactive)
same,GI50,[12],15.9 µM
same,GI50,[13],11.5 µM (inactive)
same,GI50,[14],17.3 µM (inactive)
same,GI50,[15],2.46 µM (inactive)
same,GI50,[16],16.1 µM (inactive)
same,GI50,[17],23.9 µM (inactive)
same,GI50,[18],10.8 µM (inactive)
same,GI50,[19],4.25 µM (inactive)
same,GI50,[20],7.26 µM (inactive)
same,GI50,[21],11.3 µM (inactive)
same,GI50,[22],4.14 µM (inactive)
same,GI50,[23],13.3 µM (inactive)
same,GI50,[24],16 µM (inactive)
same,GI50,[25],16.3 µM (inactive)
same,GI50,[26],19.5 µM (inactive)
same,GI50,[27],8.05 µM (inactive)
same,GI50,[28],7.52 µM (inactive)
same,GI50,[29],10.3 µM (inactive)
same,GI50,[30],2.99 µM (inactive)
same,GI50,[31],15.2 µM (inactive)
same,GI50,[32],12.8 µM (inactive)
same,GI50,[33],4.97 µM (inactive)
same,GI50,[34],5 µM (inactive)
same,GI50,[35],24.3 µM (inactive)
same,GI50,[36],13 µM (inactive)
same,GI50,[37],12.6 µM (inactive)
same,GI50,[38],10.3 µM (inactive)
same,GI50,[39],14.6 µM (inactive)
same,GI50,[40],12.1 µM (inactive)
same,GI50,[41],11.6 µM (inactive)
same,GI50,[42],13.5 µM (inactive)
same,GI50,[43],14.9 µM (inactive)
same,GI50,[44],13.8 µM (inactive)
same,GI50,[45],27 µM (inactive)
same,GI50,[46],11.9 µM (inactive)
same,GI50,[47],17.9 µM (inactive)
same,GI50,[48],< 0.01 µM (active)
same,GI50,[49],14.7 µM (inactive)
same,GI50,[50],21.7 µM (inactive)
same,GI50,[51],10.9 µM (inactive)
same,GI50,[52],11.7 µM (inactive)
same,GI50,[53],2.88 µM (inactive)
same,GI50,[54],17.8 µM (inactive)
same,GI50,[55],16 µM (inactive)
same,GI50,[56],7.05 µM (inactive)
COc1c(Br)cc2ccccc2c1-c1c(OC)c(Br)cc2ccccc12,GI50,[1],> 100 µM (inactive)
same,GI50,[2],> 100 µM (inactive)
same,GI50,[3],> 100 µM (inactive)
same,GI50,[4],> 100 µM (inactive)
same,GI50,[5],> 100 µM (inactive)
same,GI50,[6],> 100 µM (inactive)
same,GI50,[7],> 100 µM (inactive)
same,GI50,[8],> 100 µM (inactive)
same,GI50,[9],> 100 µM (inactive)
same,GI50,[10],> 100 µM (inactive)
same,GI50,[12],> 100 µM
same,GI50,[13],25.6 µM (inactive)
same,GI50,[14],> 100 µM (inactive)
same,GI50,[15],> 100 µM (inactive)
same,GI50,[16],> 100 µM (inactive)
same,GI50,[17],> 100 µM (inactive)
same,GI50,[18],> 100 µM (inactive)
same,GI50,[19],38.9 µM (inactive)
same,GI50,[20],79.1 µM (inactive)
same,GI50,[21],> 100 µM (inactive)
same,GI50,[22],> 100 µM (inactive)
same,GI50,[23],49.9 µM (inactive)
same,GI50,[24],> 100 µM (inactive)
same,GI50,[25],> 100 µM (inactive)
same,GI50,[26],> 100 µM (inactive)
same,GI50,[27],6.32 µM (inactive)
same,GI50,[29],> 100 µM (inactive)
same,GI50,[30],> 100 µM (inactive)
same,GI50,[31],> 100 µM (inactive)
same,GI50,[57],74.6 µM (inactive)
same,GI50,[32],> 100 µM (inactive)
same,GI50,[33],> 100 µM (inactive)
same,GI50,[34],> 100 µM (inactive)
same,GI50,[35],> 100 µM (inactive)
same,GI50,[36],> 100 µM (inactive)
same,GI50,[37],95.9 µM (inactive)
same,GI50,[38],80.5 µM (inactive)
same,GI50,[39],> 100 µM (inactive)
same,GI50,[40],> 100 µM (inactive)
same,GI50,[41],> 100 µM (inactive)
same,GI50,[42],> 100 µM (inactive)
same,GI50,[43],> 100 µM (inactive)
same,GI50,[58],> 100 µM (inactive)
same,GI50,[44],67.5 µM (inactive)
same,GI50,[45],> 100 µM (inactive)
same,GI50,[47],> 100 µM (inactive)
same,GI50,[48],> 100 µM (inactive)
same,GI50,[50],> 100 µM (inactive)
same,GI50,[51],7.01 µM (inactive)
same,GI50,[52],> 100 µM (inactive)
same,GI50,[53],> 100 µM (inactive)
same,GI50,[54],> 100 µM (inactive)
same,GI50,[55],> 100 µM (inactive)
same,GI50,[56],> 100 µM (inactive)
CC(C)=CCC/C(C)=C/C=C/C(C)=C/C=C/C(C)=C/C=C/C=C(C)/C=C/C=C(C)/C=C/[C@H]1C(C(C)(C)O)CC[C@]1(C)O (stereo partly specified),GI50,[1],21.4 µM (inactive)
same,GI50,[2],27.1 µM (inactive)
same,GI50,[4],22 µM (inactive)
same,GI50,[5],33.5 µM (inactive)
same,GI50,[6],15.1 µM (inactive)
same,GI50,[8],16.9 µM (inactive)
same,GI50,[9],40.6 µM (inactive)
same,GI50,[10],15.5 µM (inactive)
same,GI50,[11],15.7 µM (inactive)
same,GI50,[12],19.4 µM
same,GI50,[13],19.3 µM (inactive)
same,GI50,[14],20 µM (inactive)
same,GI50,[15],12.7 µM (inactive)
same,GI50,[16],27.5 µM (inactive)
same,GI50,[17],22.1 µM (inactive)
same,GI50,[18],20.2 µM (inactive)
same,GI50,[19],21.4 µM (inactive)
same,GI50,[20],27.4 µM (inactive)
same,GI50,[21],23.3 µM (inactive)
same,GI50,[22],28.8 µM (inactive)
same,GI50,[23],16.4 µM (inactive)
same,GI50,[24],25.4 µM (inactive)
same,GI50,[25],23 µM (inactive)
same,GI50,[26],25.1 µM (inactive)
same,GI50,[27],20.7 µM (inactive)
same,GI50,[29],71.1 µM (inactive)
same,GI50,[30],20.2 µM (inactive)
same,GI50,[31],29.8 µM (inactive)
same,GI50,[57],17.3 µM (inactive)
same,GI50,[32],32.4 µM (inactive)
same,GI50,[33],18.8 µM (inactive)
same,GI50,[34],32.1 µM (inactive)
same,GI50,[35],40 µM (inactive)
same,GI50,[36],20.2 µM (inactive)
same,GI50,[37],30.3 µM (inactive)
same,GI50,[38],17.7 µM (inactive)
same,GI50,[39],17.3 µM (inactive)
same,GI50,[40],19.5 µM (inactive)
same,GI50,[41],32.7 µM (inactive)
same,GI50,[42],29.2 µM (inactive)
same,GI50,[43],20.5 µM (inactive)
same,GI50,[58],37 µM (inactive)
same,GI50,[44],15.5 µM (inactive)
same,GI50,[45],56.2 µM (inactive)
same,GI50,[49],23 µM (inactive)
same,GI50,[50],25.8 µM (inactive)
same,GI50,[51],22.9 µM (inactive)
same,GI50,[52],37.3 µM (inactive)
same,GI50,[53],20.7 µM (inactive)
same,GI50,[54],21.8 µM (inactive)
same,GI50,[56],20.2 µM (inactive)
